These results are taken from US20150238487A1, “NOVEL ERGOLINE DERIVATIVES AND USES THEREOF” (MAP Pharmaceuticals, Inc., priority 2012, published 2015).

Molecules are shown by their SMILES. pEC50: −log10 of the molar value.

Broadly, the pEC50 is the negative decadic logarithm of the EC50, by convention in mol/L.

Assay [1] addresses T1, Dopamine D1 (Homo sapiens, UniProt P21728).
T1 construct: expressed in transfected cells; host or cells: CHO-K1
As to the kind of experiment: cAMP HTRF assay, Dopamine D1. Conditions: CHO-K1, cAMP. The assay is classed as cell-based. Here is the method:
(§1) Receptor […] activity assays were performed using 8′OH-2-CF3-dihydroergotamine (8′OH-2-CF3-DHE). Table 1 summarizes the cell lines (CHO-K1/HEK293 transfected with relevant human receptor) and the assays performed to detect any agonist or antagonist activity.
cAMP HTRF (Gs) studies were conducted to monitor activity for 8′OH-2CF3-dihydroergotamine (8′OH-2CF3-DHE) against the receptors indicated in Table 1 above. Cells expressing the human recombinant receptor of interest were grown in media without antibiotic and detached by gentle flushing with PBS-EDTA (5 mM EDTA), recovered by centrifugation and resuspended in assay buffer (KRH: 5 mM KCl, 1.25 mM MgSO4, 124 mM NaCl, 25 mM HEPES, 13.3 mM glucose, 1.25 mM KH2PO4, 1.45 mM CaCl2, 0.5 g/L BSA). Dose response curves were performed in parallel with the reference compounds. For agonist tests (96-well plates), 12 μL of cells was mixed with 12 μL of the test compound at increasing concentrations and then incubated for 30 minutes at room temperature. Lysis buffer was added and after a 1 hour incubation, cAMP concentrations was determined according to the manufacturer specification with the HTRF kit. […] Lysis buffer was added and after a 1 hour incubation, cAMP concentrations were determined according to the manufacturer specification, with the HTRF kit.

For assay [2], the target named is T2, Serotonin 5-HT1B (Homo sapiens, UniProt P28222).
T2 construct: expressed in transfected cells; host or cells: CHO-K1 (membrane extracts)
T2 sequence (P28222 whole entry): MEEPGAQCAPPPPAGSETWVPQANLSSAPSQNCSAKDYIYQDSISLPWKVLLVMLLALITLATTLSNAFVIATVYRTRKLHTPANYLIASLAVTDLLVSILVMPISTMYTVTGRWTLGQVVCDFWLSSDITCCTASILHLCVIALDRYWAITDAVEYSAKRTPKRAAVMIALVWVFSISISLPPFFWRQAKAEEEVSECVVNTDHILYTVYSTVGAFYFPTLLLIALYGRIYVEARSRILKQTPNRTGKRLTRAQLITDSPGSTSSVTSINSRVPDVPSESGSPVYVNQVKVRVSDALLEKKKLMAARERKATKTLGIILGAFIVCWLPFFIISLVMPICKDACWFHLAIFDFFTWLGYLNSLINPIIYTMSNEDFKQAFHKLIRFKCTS
Description: GTPγ[35S] assay, Serotonin 5-HT1B. The assay is classed as biochemical. Conditions: agonism, CHO-K1 membranes. As to the method: as §1
GTPγS studies were conducted to monitor agonist activity for 8′OH-2CF3-dihydroergotamine (8′OH-2CF3-DHE) against the receptors indicated in Table 1 above. Reagents used were the following: Assay buffer (20 mM HEPES, pH 7.4; 100 mM NaCl; 10 μg/mL saponin; 30 mM MgCl2); Membranes (recombinant human receptor membrane extracts were thawed on ice and diluted in assay buffer to give 1000 μg/mL ([…]) and kept on ice); GDP (diluted in assay buffer to give 30 μM solution (3 μM final concentration); beads (PVT-WGA (Amersham, RPNQ001), diluted in assay buffer at 25 mg/mL (0.25 mg/10 μL)); GTPγ^35S (Perkin Elmer, NEG030X), diluted in assay buffer to give 0.1 nM (final concentration); and ligand (agonist/antagonist diluted in assay buffer).
Membranes were mixed with GDP (1:1) and incubated for at least 15 minutes on ice. In parallel GTPγ^35S was mixed with the beads (1:1) just before starting the reaction. […] The plates were then centrifuged for 10 minutes at 2000 rpm and incubated at room temperature for 1 hour and counted for 1 min/well with a Perkin Elmer TopCount reader.

In assay [3] the test system is Glutamate (mG1u3/mG1u5/mG1u7). Description: Glutamate receptor assays (Aequorin mGlu3/mGlu5, cAMP mGluR7). The assay is classed as cell-based, human. The following applies: Aequorin (mGluR3, mGluR5). As to the method: Receptor […] activity assays were performed using 8′OH-2-CF3-dihydroergotamine (8′OH-2-CF3-DHE). Table 1 summarizes the cell lines (CHO-K1/HEK293 transfected with relevant human receptor) and the assays performed to detect any agonist or antagonist activity. […]
For agonist testing, 30 μL of cell suspension was mixed with 30 μL of test or reference agonist in a 384-well plate. The resulting emission of light was recorded using Hamamatsu Functional Drug Screening System 6000 (FDSS 6000) luminometer. […] The resulting emission of light was recorded using Hamamatsu Functional Drug Screening System 6000 (FDSS 6000) luminometer.
cAMP HTRF (Gi) studies were conducted to monitor activity for 8′OH-2CF3-dihydroergotamine (8′OH-2CF3-DHE) against the receptors indicated in Table 1 above. […] Lysis buffer was added and after a 1 hour incubation, cAMP concentrations was determined according to the manufacturer specification with the HTRF kit. […] Lysis buffer was added and after a 1 hour incubation, cAMP concentrations were determined according to the manufacturer specification, with the HTRF kit.

T1 sequence (P21728 whole entry): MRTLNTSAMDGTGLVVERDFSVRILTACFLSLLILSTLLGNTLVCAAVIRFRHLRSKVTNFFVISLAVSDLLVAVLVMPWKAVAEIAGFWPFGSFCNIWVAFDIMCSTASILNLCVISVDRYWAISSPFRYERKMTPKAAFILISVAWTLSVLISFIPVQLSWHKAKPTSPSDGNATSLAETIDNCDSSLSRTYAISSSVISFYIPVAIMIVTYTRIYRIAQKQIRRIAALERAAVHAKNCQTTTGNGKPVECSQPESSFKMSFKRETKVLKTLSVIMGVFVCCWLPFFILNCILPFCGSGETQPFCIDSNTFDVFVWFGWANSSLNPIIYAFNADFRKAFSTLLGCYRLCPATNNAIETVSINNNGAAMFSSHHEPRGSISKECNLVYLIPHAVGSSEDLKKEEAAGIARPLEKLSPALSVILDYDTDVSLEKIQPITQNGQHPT

As for `CN1C[C@H](C(=O)N[C@]2(C)O[C@@]3(O)[C@@H]4CC[C@@H](O)N4C(=O)[C@H](Cc4ccccc4)N3C2=O)C[C@@H]2c3cccc4[nH]c(C(F)(F)F)c(c34)C[C@H]21` [8′OH-2-CF3-DHE, 8′-Hydroxy-2-CF3-dihydroergotamine], in assay [1], the “Activity (Agonism: EC50; Antagonism: IC50), D1” value is “Inactive”. In assay [2], this molecule had a pEC50 of 6.39. Moreover, in assay [3], the “Activity (Agonism: EC50; Antagonism: IC50), Glutamate (mG1u3/mG1u5/mG1u7)” value is on record as “Inactive”.
